From US4997838A, “Pyrrolopyrimidine derivatives, their production and use” (Takeda Chemical Industries, Ltd., priority 1988, dated 1991)
Converted amounts (≈) assume the structure as drawn.

Columns and labels:
solid cancer = details: in words; clinical use; cited from earlier work
[1] = tested on: dihydrofolic acid reductase; details: in words; cited from earlier work
[2] = tested on: Human nasopharyngeal cancer KB cells; assay: cell growth inhibiting effect in KB cells (MTT); assay type: cell-based; details: 72 hours
Method: Human nasopharyngeal cancer KB cells (1×10^4 cells/ml) prepared according to a conventional method were inoculated into each well of the 96-microwell plate (0.1 ml in a well) and subjected to standing culture at 37° C. under 5% CO2 for 24 hours. To this was added a solution of one of the compounds obtained in the Working Examples in 10% MEM (Nissui Pharmaceutical Co. Ltd.), and subjected again to standing culture at 37° C. under 5% CO2 for 72 hours. Then the culture was pipetted out, and another 0.1 ml of the solution of MTT (Dojindo Laboratories) in 10% MEM (1.0 mg/ml) was added and incubated at 37° C. for 4 hours. Then 0.1 ml of the 10% SDS solution (Wako Pure Chemicals) was added and incubated at 37° C. for further 24 hours. The absorbance at 590 nm was measured and the IC50 value of the compound was defined as the concentration of the compound required to decrease the number of cells in the untreated control group by 50%.

[3] = tested on: Human Leukemia cells HL-60; assay: cell growth inhibiting effect in HL-60 cells ([3H]-thymidine incorporation); assay type: cell-based; details: HL-60, 68 hours + 4 hours [3H]-thymidine
Method: (1) Human Leukemia cells HL-60 (2×10^5 cells/ml) were suspended in the GIT culture medium (Wako Pure Chemicals) containing the compound of this invention and 0.2 ml of the suspension was inoculated into each well of the 96-microwell plate. After standing culture at 37° C. under 5% CO2 for 68 hours, 1 μCi of [^3 H]-thymidine (5 Ci/mmol) was added and the mixture was incubated for 4 further hours. For measurement of the incorporation of thymidine into the cells, the acid-insoluble fraction was collected on a glass filter, and the radioactivity of the fraction was measured by a liquid scintillation counter. The IC50 value of the compound was defined as the concentration of the compound required to decrease the radioactivity incorporated into the cells in the untreated control group by 50%.

[4] = tested on: Human fetal normal lung fibroblasts HEL; assay: cell growth inhibiting effect in HEL cells (MTT); assay type: cell-based; details: Fibroblast, 72 hours
Method: (2) Human fetal normal lung fibroblasts HEL (1×10^4 cells/ml) were suspended in the MEM culture medium (Nippon Flow Laboratories) and 0.1 ml of the suspension was inoculated into each well of the 96-microwellplate. After standing culture at 37° C. under 5% CO2 for 24 hours, MEM culture medium containing the compound of this invention was added and the mixture was incubated for further 72 hours. The medium was replaced by the medium containing 1 μg/ml of MTT (Dojindo Laboratories), to which was added 10% SDS (Wako Pure Chemicals), and incubated overnight. Absorbance at 590 nm was measured by he Multiscan (Titertec Co.). The IC50 value was determined by comparing the absorbance in the untreated control group.

CN(Cc1cnc2nc(N)nc(N)c2n1)c1ccc(C(=O)N[C@@H](CCC(=O)O)C(=O)O)cc1 [MTX]
effect on solid cancer (solid cancer): little effect on solid cancer | toxicity (solid cancer): relatively strong toxicity | inhibition of dihydrofolic acid reductase [1]: inhibit the reduction from dihydrofolic acid into tetrahydrofolic acid by coupling strongly with the dominant enzyme

Nc1nc(N)c2c(CCCc3ccc(C(=O)N[C@@H](CCC(=O)O)C(=O)O)cc3)c[nH]c2n1 [Working Example 4, N-[4-[3-(2,4-diamino-7H-pyrrolo [2,3-d]pyrimidin-5-yl)propyl]benzoyl]-L-glutamic acid]
IC50 [2]: 0.0003 µg/mL (≈ 0.681 nM)

Nc1nc(N)c2c(CCCc3ccc(C(=O)N[C@@H](CCC(=O)O)C(=O)O)cc3)c(O)[nH]c2n1 [Working Example 6, N-[4-[3-(2,4-diamino-6-hydroxy-7H-pyrrolo[2,3-d]pyrimidin-5-yl)propyl]benzoyl]-L-glutamic acid]
IC50 [2]: 0.08 µg/mL (≈ 175 nM)

Nc1nc(O)c2c(n1)NCC2CCCc1ccc(C(=O)N[C@@H](CCC(=O)O)C(=O)O)cc1 (stereo partly drawn) [Working Example 14, N-[4-[3-(2-amino-4-hydroxy-5,6-dihydropyrrolo[2,3-d]pyrimidin-5-yl)propyl]benzoyl]-L-glutamic acid]
IC50 [3]: 0.04 µg/mL | IC50 [4]: > 20 µg/mL

Nc1nc(N)c2c(n1)NCC2CCCc1ccc(C(=O)N[C@@H](CCC(=O)O)C(=O)O)cc1 (stereo partly drawn) [Working Example 16, N-[4-[3-(2,4-diamino-5,6-dihydropyrrolo[2,3-d]pyrimidin-5-yl)propyl]benzoyl]-L-glutamic acid]
IC50 [2]: 0.0006 µg/mL (≈ 1.36 nM)
